Experimental data from PMC6895912 (Cancers, 2019).
Like-named read-outs stand apart in the source and are kept apart here.

Legend:
Assay type in all cases: cell-based
[1] = tested on: drug-naïve and drug-resistant prostate cancer cell lines (six different cell lines); assay: MTT cell viability (antiproliferative) assay, GI50; conditions: Homo sapiens, 168 h, read-out: GI50 (concentration required to inhibit cell growth by 50%), range over the six cell lines tested, 7 days
Source text: The new NGGAs (VNPP414 and VNPP433-3β) were identified from in vitro anti-proliferative activities of our in-house compounds assessed in several PC cell lines, including LNCaP, C4-2B, and CWR22Rv1 (22Rv1). […] It was recently reported that treatment of AR-expressing bladder cancer cell lines with enzalutamide induced up-regulation of tumor suppressor, p53, p21 and PTEN, and down-regulation of several oncogenic genes, such as c-myc, cyclin D1, and cyclin E [38]. […] We note that these cell-cycle studies were conducted in LNCaP cells. Inhibition of colony formations (clonogenicity assays) was also assessed by treating the parental CWR-R1 cells and two drug-resistant counterparts with Gal, VNPP433-3β, or ENZ.
(A) Comparative GI50 values of Gal, NGGAs, and enzalutamide (ENZ) in drug-naïve-/-resistant prostate cancer cells. (B) Gal and NGGAs induce G1 cell cycle arrest in LNCaP cells. (C) VNPP414 and VNPP433-3β deplete the cell cycle regulator, cyclin D1, and upregulate p21; “+” indicates specific treatments. (D) Gal cause dose-dependent depletion of cyclin D1. […] (F) Quantification of colony formation units (CFU) in drug-naive/resistant cells. Colony assays were repeated three times and colonies counted in four quadrants of the wells. […]
MTT assays were performed as described in our previous publications. […] Data was analyzed with GraphPad prism 4 software.

[2] = target: fAR (Homo sapiens, UniProt P10275); assay: Protein level decrease by western blot, dose-response in CWR22Rv1 cells
Source text: (§1) Figure 4 Impact of Gal and NGGAs on AR/AR-V7 and Mnk1/2-eIF4E signaling pathways. (A) Western blot showing the effects of Gal and VNPT55 (55) on Mnk1, Mnk2, and peIF4E. […] (D) Western blot showing dose-dependent effect of Gal on Mnk1, Mnk2, BMI-1, and Snail1 in drug-resistant CWR-R1(10E) cells. […] Note: the numbers in parentheses in Figure 4B are concentrations of the agents in µM.
(§2) We further determined the effects of lead NGGAs on f-AR, AR-V7 and Mnk1 protein levels in CWR22Rv1 cells.
(§3) Cells were lysed with radioimmunoprecipitation assay (RIPA) buffer (Sigma, St. Louis, MO, USA), supplemented with 1X protease inhibitors (Roche, Indianapolis, IN, USA), phosphatase inhibitors (Thermo Scientific, Waltham, MA, USA), 1 mmol/L EDTA and 1 mmol/L PMSF (Sigma).

[3] = target: T1, AR-V7 (Homo sapiens, UniProt P10275); assay: as above; conditions: for times more effective (than Gal) in degrading AR-V7: from EC50 values
T1 construct: compound treatments (0–7.5 µM) of CWR22Rv1 cells for 72 h followed by western blot analysis of cells lysates; endogenous in cells; host or cells: CWR22Rv1
T1 sequence (P10275 1-644 isoform P10275-3): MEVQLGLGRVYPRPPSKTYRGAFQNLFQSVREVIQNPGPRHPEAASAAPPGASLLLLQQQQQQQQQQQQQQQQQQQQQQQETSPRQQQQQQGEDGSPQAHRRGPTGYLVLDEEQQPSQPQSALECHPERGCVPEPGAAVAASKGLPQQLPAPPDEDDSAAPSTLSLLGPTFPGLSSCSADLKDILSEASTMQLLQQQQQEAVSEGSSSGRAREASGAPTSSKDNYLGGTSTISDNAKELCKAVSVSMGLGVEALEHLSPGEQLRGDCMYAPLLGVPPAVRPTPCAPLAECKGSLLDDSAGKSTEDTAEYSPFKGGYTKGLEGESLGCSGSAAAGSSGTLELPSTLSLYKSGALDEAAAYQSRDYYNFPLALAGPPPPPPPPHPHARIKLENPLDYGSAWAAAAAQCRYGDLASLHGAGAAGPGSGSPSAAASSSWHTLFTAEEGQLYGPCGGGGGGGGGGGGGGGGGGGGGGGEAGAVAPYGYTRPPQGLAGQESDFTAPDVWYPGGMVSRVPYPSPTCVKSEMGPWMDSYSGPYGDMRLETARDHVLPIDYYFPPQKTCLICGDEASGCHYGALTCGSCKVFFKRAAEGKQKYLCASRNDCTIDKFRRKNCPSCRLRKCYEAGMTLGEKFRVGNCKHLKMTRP
Source text: as §1, §2, §3

Sequence of fAR (P10275 whole entry): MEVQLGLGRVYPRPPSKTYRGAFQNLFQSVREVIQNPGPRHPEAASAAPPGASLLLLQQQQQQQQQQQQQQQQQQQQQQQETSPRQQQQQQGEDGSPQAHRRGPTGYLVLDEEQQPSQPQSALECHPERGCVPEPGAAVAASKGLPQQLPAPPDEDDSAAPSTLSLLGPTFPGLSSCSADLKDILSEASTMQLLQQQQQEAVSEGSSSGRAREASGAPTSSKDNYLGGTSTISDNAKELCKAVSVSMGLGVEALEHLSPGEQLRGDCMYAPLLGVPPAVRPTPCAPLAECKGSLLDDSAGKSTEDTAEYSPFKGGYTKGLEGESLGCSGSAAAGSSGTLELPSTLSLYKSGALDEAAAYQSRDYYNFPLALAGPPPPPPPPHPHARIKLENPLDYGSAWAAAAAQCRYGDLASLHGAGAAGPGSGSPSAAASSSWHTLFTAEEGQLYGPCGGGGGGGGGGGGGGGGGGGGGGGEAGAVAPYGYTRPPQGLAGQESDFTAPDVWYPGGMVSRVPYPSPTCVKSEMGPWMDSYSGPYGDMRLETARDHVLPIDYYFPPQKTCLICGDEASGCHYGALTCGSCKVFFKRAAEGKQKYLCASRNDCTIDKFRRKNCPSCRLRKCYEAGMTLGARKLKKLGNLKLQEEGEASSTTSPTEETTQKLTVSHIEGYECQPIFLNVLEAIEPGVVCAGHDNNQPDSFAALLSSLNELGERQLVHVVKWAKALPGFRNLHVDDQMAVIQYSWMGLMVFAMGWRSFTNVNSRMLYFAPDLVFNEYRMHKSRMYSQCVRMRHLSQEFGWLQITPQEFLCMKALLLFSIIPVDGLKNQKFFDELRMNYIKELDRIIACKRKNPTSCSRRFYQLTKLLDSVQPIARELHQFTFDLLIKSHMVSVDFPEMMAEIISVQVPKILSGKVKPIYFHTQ

Compound | GI50 [1] [nM] | EC50 ([2]; 0–7.5 µM, 72 h, read-out: fAR EC50) [nM] | times more effective (than Gal) in degrading AR-V7 [3] [times] | DC50 ([3]; read-out: AR-V7 EC50, 0–7.5 µM, 72 h, western blot) [nM] | EC50 ([2]; read-out: fAR EC50, 0–7.5 µM, 72 h) [nM] | DC50 ([3]; 0–7.5 µM, 72 h, western blot, read-out: AR-V7 EC50) [nM]
C[C@]12CC[C@H](n3ccnc3)CC1=CCC1C2CC[C@]2(C)C(n3cnc4ccccc43)=CCC12 (stereo partly drawn) [VNPP433-3β] | 1120 to 2540 | 580 ± 2 | 3.7 | 1340 ± 330 | – | –
C[C@]12CC[C@H](OCc3ccncc3)CC1=CCC1C2CC[C@]2(C)C(n3cnc4ccccc43)=CCC12 (stereo partly shown) [VNPP414] | – | – | 3.9 | – | 840 ± 2 | 1260 ± 50
